IC50 data for seven compounds are collected here from the Kinase Knowledgebase extract (Sharma et al. 2016).

For one assay, the target named is EGFR (UniProt P00533).
The next assay addresses EGFR (mouse) (UniProt P00533). Particulars: mk.

Chain of EGFR (P00533 whole entry, looked up): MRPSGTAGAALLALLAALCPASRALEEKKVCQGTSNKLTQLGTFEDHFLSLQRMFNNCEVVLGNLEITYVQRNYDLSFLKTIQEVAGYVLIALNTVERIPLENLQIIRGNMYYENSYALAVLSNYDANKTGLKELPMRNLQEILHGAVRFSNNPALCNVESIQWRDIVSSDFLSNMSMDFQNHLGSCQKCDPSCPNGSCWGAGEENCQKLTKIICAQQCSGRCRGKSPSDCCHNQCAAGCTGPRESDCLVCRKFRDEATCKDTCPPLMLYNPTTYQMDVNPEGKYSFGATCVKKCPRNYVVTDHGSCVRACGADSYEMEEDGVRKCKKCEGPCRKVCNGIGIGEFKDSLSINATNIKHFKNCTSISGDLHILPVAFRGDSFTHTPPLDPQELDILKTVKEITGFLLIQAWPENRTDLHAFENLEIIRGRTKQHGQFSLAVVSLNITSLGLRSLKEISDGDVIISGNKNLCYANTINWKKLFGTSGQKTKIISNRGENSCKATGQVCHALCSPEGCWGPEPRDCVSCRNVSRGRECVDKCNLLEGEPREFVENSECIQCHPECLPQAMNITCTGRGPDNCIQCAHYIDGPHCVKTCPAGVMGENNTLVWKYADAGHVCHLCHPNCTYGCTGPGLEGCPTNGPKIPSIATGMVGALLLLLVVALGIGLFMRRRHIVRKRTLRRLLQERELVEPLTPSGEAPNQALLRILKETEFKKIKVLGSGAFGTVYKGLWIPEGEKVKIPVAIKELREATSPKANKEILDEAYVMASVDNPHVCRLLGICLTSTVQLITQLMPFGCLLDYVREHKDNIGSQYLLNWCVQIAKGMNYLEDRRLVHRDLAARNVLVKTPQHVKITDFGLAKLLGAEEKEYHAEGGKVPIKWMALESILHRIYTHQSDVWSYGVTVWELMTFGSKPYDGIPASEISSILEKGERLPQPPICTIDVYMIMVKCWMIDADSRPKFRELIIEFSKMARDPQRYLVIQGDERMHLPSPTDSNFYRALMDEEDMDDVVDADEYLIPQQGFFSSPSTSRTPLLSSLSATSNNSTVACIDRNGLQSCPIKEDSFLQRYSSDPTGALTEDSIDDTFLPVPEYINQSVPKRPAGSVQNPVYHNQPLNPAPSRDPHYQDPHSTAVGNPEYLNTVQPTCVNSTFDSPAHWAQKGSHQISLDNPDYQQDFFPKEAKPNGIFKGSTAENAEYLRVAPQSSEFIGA

As a reminder, the IC50 is the concentration needed to halve the response being measured. As to `O=C1c2cc(O)cc(O)c2C(=O)c2c1cc(O)c(C(CO)CCO)c2O` (centres undefined), the IC50 at EGFR came to 21 µM; with EGFR (mouse), 22 µM.

With `O=C1c2cc(O)cc(O)c2C(=O)c2c1cc(O)c(CO)c2O`, the figures for the IC50 at EGFR and with EGFR (mouse) were 6.7 µM and 10 µM, respectively.

For `COC(=O)C(CCC(C)=O)c1c(O)cc2c(c1O)C(=O)c1c(O)cc(O)cc1C2=O` (centres undefined), the IC50 on EGFR came to 17 µM; in the assay with EGFR (mouse), 28 µM.

For the compound `O=C1c2cc(O)cc(O)c2C(=O)c2c1cc(O)c(C1CCOC1=O)c2O` (centres undefined), the IC50 against EGFR came to 11 µM; in the assay with EGFR (mouse), 35 µM.

Consider `C[C@]12CC[C@@H](CO1)c1c(cc3c(c1O)C(=O)c1c(O)cc(O)cc1C3=O)O2`, for which the IC50 amounted to 38 µM against EGFR and 18 µM with EGFR (mouse).

`CC(=O)CCC(C(=O)O)c1c(O)cc2c(c1O)C(=O)c1c(O)cc(O)cc1C2=O` (centres undefined): the figures for the IC50 on EGFR and with EGFR (mouse) were 21 µM and > 50 µM, respectively.

As for `O=C1c2cc(O)cc(O)c2C(=O)c2c1cc(O)c(C(CCO)C(=O)O)c2O` (centres undefined), the IC50 on EGFR is 10.5 µM; with EGFR (mouse), 16 µM.
